Values quoted from earlier work as cited in patent US20210401736A1, “SEMI-SOLID CHEWABLE GEL CANNABINOID COMPOSITIONS AND METHODS OF MAKING AND USING THEREOF” (Seattle Gummy Company, priority 2019, published 2021).

What was measured:
CB1 receptor = CB1 receptor (Homo sapiens, UniProt P21554)
[1] = system: alpha2-adrenergic receptor
5-HT1A receptor = molecular target: T1, 5-HT1A receptor (Homo sapiens, UniProt P08908)
T1 sequence (P08908 1-422): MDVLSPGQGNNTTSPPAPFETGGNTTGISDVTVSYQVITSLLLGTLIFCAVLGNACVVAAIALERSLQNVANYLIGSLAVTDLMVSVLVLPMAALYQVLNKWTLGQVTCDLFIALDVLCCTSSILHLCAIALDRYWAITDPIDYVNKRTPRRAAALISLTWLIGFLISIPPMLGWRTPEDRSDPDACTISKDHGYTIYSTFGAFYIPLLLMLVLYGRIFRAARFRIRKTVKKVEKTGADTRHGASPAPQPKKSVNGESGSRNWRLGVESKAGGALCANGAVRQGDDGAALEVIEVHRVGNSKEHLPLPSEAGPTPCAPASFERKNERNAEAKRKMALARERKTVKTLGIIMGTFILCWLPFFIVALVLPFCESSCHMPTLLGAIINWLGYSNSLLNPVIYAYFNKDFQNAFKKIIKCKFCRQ

[2] = 5 mg of CBN versus 10 mg dose of diazepam, according to studies

Chain of CB1 receptor (P21554 whole entry): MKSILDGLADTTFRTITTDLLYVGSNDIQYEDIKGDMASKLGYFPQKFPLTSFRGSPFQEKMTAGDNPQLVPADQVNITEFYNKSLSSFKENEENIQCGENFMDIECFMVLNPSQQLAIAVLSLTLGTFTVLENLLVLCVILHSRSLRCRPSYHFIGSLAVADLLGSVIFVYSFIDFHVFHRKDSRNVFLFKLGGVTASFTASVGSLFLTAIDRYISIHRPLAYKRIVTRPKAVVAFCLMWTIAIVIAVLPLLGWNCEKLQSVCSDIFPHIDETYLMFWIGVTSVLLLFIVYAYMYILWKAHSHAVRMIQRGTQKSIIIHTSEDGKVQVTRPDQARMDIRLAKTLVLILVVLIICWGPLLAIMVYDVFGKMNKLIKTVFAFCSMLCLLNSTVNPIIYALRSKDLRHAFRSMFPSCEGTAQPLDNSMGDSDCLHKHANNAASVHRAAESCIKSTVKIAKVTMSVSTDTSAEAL

C=C(C)[C@@H]1CCC(C)=C[C@H]1c1c(O)cc(CCCCC)cc1O [CBD, cannabidiol, reference compound]
solubility in polyols such as glycerol: low solubility
solubility in water: water insoluble

CCCCCc1cc(O)c(C/C=C(\C)CCC=C(C)C)c(O)c1 [CBG, cannabigerol]
affinity, CB1 receptor antagonist (CB1 receptor): low affinity
affinity, alpha2-adrenergic receptor agonist [1]: high affinity
affinity, 5-HT1A receptor antagonist (5-HT1A receptor): moderate affinity
solubility in polyols such as glycerol: low solubility
solubility in water: water insoluble

CCCCCc1cc(O)c2c(c1)OC(C)(C)c1ccc(C)cc1-2 [CBN, cannabinol]
sedative effect [2]: as effective as 10 mg dose of diazepam
